Test results from ChEMBL document CHEMBL5321294, “Evolution of Slow-Binding Inhibitors Targeting Histone Deacetylase Isoforms” (J Med Chem, 2023).
Values belong to the compound of their own block, whether it stands above or below them.

Key:
Histone deacetylase 1 [1] = biological target: T1, Histone deacetylase 1 (Homo sapiens, UniProt Q13547)
Histone deacetylase 1 [2] = biological target: T1, Histone deacetylase 1; remark: listed apart in the source
Histone deacetylase 1 [3] = biological target: T1, Histone deacetylase 1; remark: listed apart in the source
Description: Binding affinity to HDAC1 (unknown origin) using Ac-LGKac-AMC as substrate assessed as half life

Histone deacetylase 3 [4] = biological target: T2, Histone deacetylase 3 (Homo sapiens, UniProt O15379)
T2 sequence (O15379 whole entry): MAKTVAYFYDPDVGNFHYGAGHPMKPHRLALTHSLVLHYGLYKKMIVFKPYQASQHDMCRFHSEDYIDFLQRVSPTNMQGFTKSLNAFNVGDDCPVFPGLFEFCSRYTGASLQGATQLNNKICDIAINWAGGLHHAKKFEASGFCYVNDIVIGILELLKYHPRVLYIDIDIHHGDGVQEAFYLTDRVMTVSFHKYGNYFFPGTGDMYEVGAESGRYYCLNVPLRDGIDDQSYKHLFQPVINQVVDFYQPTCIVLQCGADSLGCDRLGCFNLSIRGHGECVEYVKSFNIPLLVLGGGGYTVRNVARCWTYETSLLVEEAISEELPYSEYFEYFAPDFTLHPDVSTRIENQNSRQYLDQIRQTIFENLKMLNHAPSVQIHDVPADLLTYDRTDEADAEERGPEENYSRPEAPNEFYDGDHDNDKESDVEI
Description: Binding affinity to HDAC3 (unknown origin) using Ac-LGKac-AMC as substrate assessed as half life

Histone deacetylase 3 [5] = biological target: T2, Histone deacetylase 3; experiment: Binding affinity to HDAC3 (unknown origin) assessed as binding constant(k2)
Histone deacetylase 3 [6] = biological target: T2, Histone deacetylase 3; experiment: Binding affinity to HDAC3 (unknown origin) assessed as binding constant(k-2)
Histone deacetylase 3 [7] = biological target: T2, Histone deacetylase 3; experiment: Binding affinity to HDAC3 (unknown origin) assessed as residence time
Histone deacetylase 2 [8] = biological target: T3, Histone deacetylase 2 (Homo sapiens, UniProt Q92769)
T3 sequence (Q92769 whole entry): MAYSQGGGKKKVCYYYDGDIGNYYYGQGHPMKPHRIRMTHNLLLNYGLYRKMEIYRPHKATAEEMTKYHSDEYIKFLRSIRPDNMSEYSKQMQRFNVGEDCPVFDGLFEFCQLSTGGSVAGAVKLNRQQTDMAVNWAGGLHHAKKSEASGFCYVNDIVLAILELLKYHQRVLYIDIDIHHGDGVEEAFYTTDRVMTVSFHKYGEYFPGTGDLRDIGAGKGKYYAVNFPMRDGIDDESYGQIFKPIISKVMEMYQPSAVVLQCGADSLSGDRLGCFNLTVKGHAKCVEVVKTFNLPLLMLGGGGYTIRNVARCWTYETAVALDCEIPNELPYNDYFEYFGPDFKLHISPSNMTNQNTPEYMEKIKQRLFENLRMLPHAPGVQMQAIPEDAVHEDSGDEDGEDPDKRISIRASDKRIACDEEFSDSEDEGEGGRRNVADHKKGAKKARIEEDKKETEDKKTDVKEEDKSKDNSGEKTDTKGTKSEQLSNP
Description: Binding affinity to HDAC2 (unknown origin) using Ac-LGKac-AMC as substrate assessed as half life

Histone deacetylase 2 [9] = biological target: T3, Histone deacetylase 2; remark: listed apart in the source
Description: Binding affinity to HDAC2 (unknown origin) using Ac-LGKac-AMC as substrate assessed as residence time

Histone deacetylase 1 [10] = biological target: T1, Histone deacetylase 1; experiment: Binding affinity to HDAC1 (unknown origin) assessed as inhibition constant
Histone deacetylase 3 [11] = biological target: T2, Histone deacetylase 3; experiment: Binding affinity to human HDAC3 using Acetyl-Lys(Ac)-AMC as substrate assessed as binding constant (k-1)
Homo sapiens [12] = organism: Homo sapiens; experiment: Selectivity ratio of Ki for human HDAC3 using Acetyl-Lys(Ac)-AMC as substrate to Ki for HDAC1 using Acetyl-Lys(Ac)-AMC as substrate
Histone deacetylase 3 [13] = biological target: T2, Histone deacetylase 3; experiment: Binding affinity to HDAC3 (unknown origin) assessed as inhibition constant
Homo sapiens [14] = organism: Homo sapiens; experiment: Selectivity index, ratio of IC50 for Inhibition of human HDAC3 to Inhibition of human IC50 for HDAC2
Histone deacetylase 3 [15] = biological target: T2, Histone deacetylase 3; experiment: Binding affinity to human HDAC3 assessed as half life
Histone deacetylase 2 [16] = biological target: T3, Histone deacetylase 2; experiment: Binding affinity to human HDAC2 assessed as half life
Histone deacetylase 1 [17] = biological target: T1, Histone deacetylase 1; experiment: Binding affinity to human HDAC1 assessed as half life
Homo sapiens [18] = organism: Homo sapiens; experiment: Selectivity index, ratio of IC50 for Inhibition of human HDAC3 to IC50 for Inhibition of human HDAC1
Histone deacetylase 2 [19] = biological target: T3, Histone deacetylase 2; experiment: Binding affinity to human HDAC2 assessed as residence time
Histone deacetylase 3 [20] = biological target: T2, Histone deacetylase 3; experiment: Binding affinity to human HDAC3 assessed as residence time
Histone deacetylase 3 [21] = biological target: T2, Histone deacetylase 3; experiment: Binding affinity to human HDAC3 assessed as dissociation rate constant (Koff)
Histone deacetylase 3 [22] = biological target: T2, Histone deacetylase 3; experiment: Binding affinity to human HDAC3 assessed as binding rate constant (Kon)
Histone deacetylase 1 [23] = biological target: T1, Histone deacetylase 1; experiment: Binding affinity to HDAC1 (unknown origin) assessed as dissociation constant (Koff)
Histone deacetylase 1 [24] = biological target: T1, Histone deacetylase 1; experiment: Binding affinity to HDAC1 (unknown origin) assessed as binding constant (Kon)
Histone deacetylase 1 [25] = biological target: T1, Histone deacetylase 1; experiment: Inhibition of HDAC1 (unknown origin) measured after 1 hrs by fluorescence based assay
Histone deacetylase 3 [26] = biological target: T2, Histone deacetylase 3; experiment: Inhibition of HDAC3 (unknown origin) measured after 24 hrs by fluorescence based assay
Histone deacetylase 3 [27] = biological target: T2, Histone deacetylase 3; experiment: Inhibition of HDAC3 (unknown origin) measured after 1 hrs by fluorescence based assay
Histone deacetylase 1 [28] = biological target: T1, Histone deacetylase 1; experiment: Inhibition of HDAC1 (unknown origin) measured after 24 hrs by fluorescence based assay
Histone deacetylase 2 [29] = biological target: T3, Histone deacetylase 2; experiment: Inhibition of HDAC2 (unknown origin) measured after 24 hrs by fluorescence based assay
Histone deacetylase 2 [30] = biological target: T3, Histone deacetylase 2; experiment: Inhibition of HDAC2 (unknown origin) measured after 1 hrs by fluorescence based assay
Histone deacetylase 1 [31] = biological target: T1, Histone deacetylase 1; experiment: Binding affinity to human HDAC1 using AcLGK (Ac) -AMC as substrate assessed as residence time
[32] = biological target: T4, Protein deacetylase HDAC6 (Homo sapiens) (UniProt Q9UBN7); experiment: Binding affinity to N-terminal GST-tagged human full length HDAC6 expressed in baculovirus infected Sf9 cells using Fluor-de-Lys Green as substrate assessed as residence time
T4 sequence (whole entry): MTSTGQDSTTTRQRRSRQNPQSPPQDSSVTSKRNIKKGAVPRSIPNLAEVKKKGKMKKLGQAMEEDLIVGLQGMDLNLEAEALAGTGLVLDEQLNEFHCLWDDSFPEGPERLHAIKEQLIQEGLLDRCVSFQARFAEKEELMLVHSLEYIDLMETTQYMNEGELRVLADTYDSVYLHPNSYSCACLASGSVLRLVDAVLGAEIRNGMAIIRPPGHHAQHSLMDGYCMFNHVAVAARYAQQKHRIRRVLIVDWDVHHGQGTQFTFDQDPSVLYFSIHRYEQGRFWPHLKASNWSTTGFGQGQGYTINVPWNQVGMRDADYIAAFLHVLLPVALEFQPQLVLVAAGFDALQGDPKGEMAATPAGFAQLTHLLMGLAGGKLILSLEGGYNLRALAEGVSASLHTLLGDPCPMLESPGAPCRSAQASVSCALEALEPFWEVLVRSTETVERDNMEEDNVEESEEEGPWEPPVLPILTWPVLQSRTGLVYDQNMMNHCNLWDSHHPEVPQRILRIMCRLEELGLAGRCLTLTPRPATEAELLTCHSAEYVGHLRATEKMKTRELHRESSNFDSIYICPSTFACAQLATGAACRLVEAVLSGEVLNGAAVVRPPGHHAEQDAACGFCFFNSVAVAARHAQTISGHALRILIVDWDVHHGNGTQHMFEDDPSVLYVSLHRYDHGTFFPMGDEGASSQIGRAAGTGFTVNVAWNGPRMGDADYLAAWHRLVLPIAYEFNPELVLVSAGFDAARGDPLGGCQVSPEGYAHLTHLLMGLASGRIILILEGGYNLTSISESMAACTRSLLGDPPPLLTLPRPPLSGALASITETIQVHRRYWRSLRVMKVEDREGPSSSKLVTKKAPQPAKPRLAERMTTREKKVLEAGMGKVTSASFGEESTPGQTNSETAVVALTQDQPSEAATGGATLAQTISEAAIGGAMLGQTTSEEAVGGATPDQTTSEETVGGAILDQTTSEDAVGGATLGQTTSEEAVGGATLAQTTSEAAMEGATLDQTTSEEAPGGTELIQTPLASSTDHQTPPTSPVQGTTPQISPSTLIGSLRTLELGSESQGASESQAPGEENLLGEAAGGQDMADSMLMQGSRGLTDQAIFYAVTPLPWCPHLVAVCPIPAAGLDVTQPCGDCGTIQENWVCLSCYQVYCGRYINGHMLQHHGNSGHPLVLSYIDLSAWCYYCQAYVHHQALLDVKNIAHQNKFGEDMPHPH

[33] = biological target: T4, Protein deacetylase HDAC6 (Homo sapiens); experiment: Binding affinity to N-terminal GST-tagged human full length HDAC6 expressed in baculovirus infected Sf9 cells using Fluor-de-Lys Green as substrate assessed as dissociation constant (koff) by jump dilution assay
[34] = biological target: T4, Protein deacetylase HDAC6 (Homo sapiens); experiment: Binding affinity to N-terminal GST-tagged human full length HDAC6 expressed in baculovirus infected Sf9 cells using Fluor-de-Lys Green as substrate assessed as association constant (kon)
[35] = biological target: T5, Protein deacetylase HDAC6 (Homo sapiens, UniProt Q9UBN7); experiment: Inhibition of N-terminal GST-tagged human full length HDAC6 expressed in baculovirus infected Sf9 cells using Fluor-de-Lys Green as substrate
T5 sequence (Q9UBN7 whole entry): T4 sequence (whole entry)

[36] = biological target: T4, Protein deacetylase HDAC6 (Homo sapiens); experiment: Binding affinity to N-terminal GST-tagged human full length HDAC6 expressed in baculovirus infected Sf9 cells using Fluor-de-Lys Green as substrate assessed as residence time by jump dilution assay
[37] = biological target: T5, Protein deacetylase HDAC6; experiment: Binding affinity to N-terminal GST-tagged human full length HDAC6 expressed in baculovirus infected Sf9 cells using Fluor-de-Lys Green as substrate assessed as inhibition constant
[38] = biological target: T4, Protein deacetylase HDAC6 (Homo sapiens); experiment: Binding affinity to N-terminal GST-tagged human full length HDAC6 expressed in baculovirus infected Sf9 cells using Fluor-de-Lys Green as substrate assessed as dissociation constant (koff)

T1 sequence (Q13547 whole entry): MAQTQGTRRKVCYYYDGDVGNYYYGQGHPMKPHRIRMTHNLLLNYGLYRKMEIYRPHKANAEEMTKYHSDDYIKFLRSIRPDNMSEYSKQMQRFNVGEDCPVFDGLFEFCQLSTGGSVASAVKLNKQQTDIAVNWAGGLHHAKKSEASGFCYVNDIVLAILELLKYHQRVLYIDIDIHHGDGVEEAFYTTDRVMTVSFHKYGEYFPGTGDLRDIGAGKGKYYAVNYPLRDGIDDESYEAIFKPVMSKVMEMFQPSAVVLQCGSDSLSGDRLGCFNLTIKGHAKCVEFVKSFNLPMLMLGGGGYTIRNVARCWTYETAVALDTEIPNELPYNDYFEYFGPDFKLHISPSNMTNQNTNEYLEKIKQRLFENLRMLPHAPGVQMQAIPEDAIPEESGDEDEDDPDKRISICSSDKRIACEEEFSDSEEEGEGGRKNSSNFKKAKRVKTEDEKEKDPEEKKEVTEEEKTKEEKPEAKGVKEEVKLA

SMILES: C[C@@H]1NC(=O)[C@H]2CCCN2C(=O)[C@H](CCCCCC(=O)[C@@H]2CO2)NC(=O)[C@@H](C)NC1=O
K (Histone deacetylase 3 [5]): 0.12 min⁻¹
K (Histone deacetylase 3 [6]): 0.012 min⁻¹
TIME (Histone deacetylase 3 [7]): 1.39 h

SMILES: Nc1ccc(-c2ccncc2)cc1NC(=O)N1CCCC1
K (Histone deacetylase 1 [23]): 0.011 min⁻¹
K (Histone deacetylase 1 [24]): 3080 M⁻¹ s⁻¹

SMILES: NC/C(=C\C(=O)c1ccccc1)c1ccccc1
IC50 (Histone deacetylase 1 [25]): 5960 nM
IC50 (Histone deacetylase 3 [26]): > 50000 nM
IC50 (Histone deacetylase 3 [27]): > 50000 nM
IC50 (Histone deacetylase 1 [28]): 8650 nM
IC50 (Histone deacetylase 2 [29]): 26400 nM
IC50 (Histone deacetylase 2 [30]): 19600 nM

SMILES: Nc1ccc(-c2ccco2)cc1NC(=O)c1ccc(-c2cn(CS(=O)(=O)c3ccccc3)nn2)cc1
TIME (Histone deacetylase 1 [31]): 2.42 h

Next, values leading:

Ki (Histone deacetylase 1 [1]): 0.88 nM
Ki (Histone deacetylase 1 [2]): ~0.02 nM
T1/2 (Histone deacetylase 1 [3]): > 0.433 h
T1/2 (Histone deacetylase 3 [4]): > 1670 h
SMILES: C/C=C1\NC(=O)[C@H]2CSSCC/C=C/[C@H](CC(=O)N[C@H](C(C)C)C(=O)N2)OC(=O)[C@H](C(C)C)NC1=O [ROMIDEPSIN]

T1/2 (Histone deacetylase 2 [8]): > 2.32 h
T1/2 (Histone deacetylase 2 [9]): 3.33 h
T1/2 (Histone deacetylase 1 [3]): > 23.1 h
T1/2 (Histone deacetylase 3 [4]): > 0.833 h
SMILES: CC(=O)Nc1ccc(C(=O)Nc2ccccc2N)cc1

Ki (Histone deacetylase 1 [10]): 7 nM
K (Histone deacetylase 3 [11]): 0.002 min⁻¹
Ratio Ki (Homo sapiens [12]): 350
Ki (Histone deacetylase 3 [13]): 2500 nM
SMILES: Nc1ccc(-c2ccccc2)cc1NC(=O)CCCCCC(=O)Nc1ccccc1

Ratio IC50 (Homo sapiens [14]): 100
T1/2 (Histone deacetylase 3 [15]): 11.5 h
T1/2 (Histone deacetylase 2 [16]): 30 h
T1/2 (Histone deacetylase 1 [17]): 7.17 h
Ratio IC50 (Homo sapiens [18]): 1040
TIME (Histone deacetylase 2 [19]): 41.7 h
TIME (Histone deacetylase 3 [20]): 10.4 h
K (Histone deacetylase 3 [21]): 0.002 min⁻¹
K (Histone deacetylase 3 [22]): 16.7 M⁻¹ s⁻¹
SMILES: CC(=O)Nc1ccc(C(=O)Nc2cc(-c3ccncc3)ccc2N)cc1

TIME [32]: 3.6 h
K [33]: 3.3 10^-3/min
K [34]: 9.6 10^5/min/M
IC50 [35]: 7.7 nM
TIME [36]: 5.1 h
Ki [37]: 4.8 nM
K [38]: 4.6 10^-3/min
SMILES: FC(F)c1nnc(-c2ccc(Cn3cc(-c4ccc(NC5N=CCN5)cc4)nn3)cc2)o1 (stereo not given)
